This is an account of results in patent US20120270819A1, “USE OF COMPOUNDS WITH SGLT-1/SGLT-2 INHIBITOR ACTIVITY FOR PRODUCING MEDICAMENTS FOR TREATMENT OF BONE DISEASE” (SANOFI, priority 2009, published 2012).

Assay [1] has as its target T1, human sodium-dependent glucose transporter 1 (SGLT1, SLC5A1) (Homo sapiens, UniProt P13866).
T1 construct: Bases 11 to 2005 correspond to the complete coding region of human SGLT1; expressed in transfected cells; host or cells: CHO-TRex cells (Invitrogen), pcDNA4/TO vector, tetracycline-induced
T1 sequence (P13866 1-664): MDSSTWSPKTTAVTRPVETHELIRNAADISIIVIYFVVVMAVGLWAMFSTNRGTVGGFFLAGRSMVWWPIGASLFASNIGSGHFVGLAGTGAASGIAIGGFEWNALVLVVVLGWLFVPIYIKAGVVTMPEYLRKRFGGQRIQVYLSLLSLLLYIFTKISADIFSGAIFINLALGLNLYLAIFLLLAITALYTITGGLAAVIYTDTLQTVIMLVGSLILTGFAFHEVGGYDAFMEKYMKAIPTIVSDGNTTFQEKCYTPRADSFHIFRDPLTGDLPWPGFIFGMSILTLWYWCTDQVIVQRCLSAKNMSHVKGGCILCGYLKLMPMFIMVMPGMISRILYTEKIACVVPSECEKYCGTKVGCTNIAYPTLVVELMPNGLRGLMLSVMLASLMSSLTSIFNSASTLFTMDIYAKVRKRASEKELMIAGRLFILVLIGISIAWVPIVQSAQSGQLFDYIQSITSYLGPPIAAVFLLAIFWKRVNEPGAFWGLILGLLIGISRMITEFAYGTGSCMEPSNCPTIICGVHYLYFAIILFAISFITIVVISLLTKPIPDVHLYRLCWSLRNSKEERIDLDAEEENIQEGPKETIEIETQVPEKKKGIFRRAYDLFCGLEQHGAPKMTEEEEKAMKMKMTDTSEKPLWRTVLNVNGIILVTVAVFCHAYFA
In words: Inhibition of methyl α-D-glucopyranoside uptake in CHO-TRex-hSGLT1 cells. The class given is cell-based. To be noted: recombinant SGLT1; read-out: IC50 SGLT 1. An excerpt:
A further method for testing the activity of the compounds is the inhibition of the transport activity of the human sodium-dependent glucose transporter 1 (SGLT1, SLC5A1) in vitro:
1. Cloning of an Expression Vector for Human SGLT1
The cDNA for human SGLT1 was introduced into the pcDNA4/TO vector (Invitrogen) by standard methods of molecular biology as described in Sambrook et al. (Sambrook et al., Molecular Cloning, A Laboratory Manual, 2nd Edition). […] Bases 11 to 2005 correspond to the complete coding region of human SGLT1.
2. Preparation of a Recombinant Cell Line with Inducible Expression of Human SGLT1
The expression vector for human SGLT1 was introduced into CHO-TRex cells (Invitrogen) by means of FuGene6 lipofection (Roche). To select single cell clones, 600 μg/ml Zeocin (Invitrogen) was added to the cell culture medium (Nutrient Mixture F-12 (Ham), (Invitrogen) supplemented with 10% fetal calf serum (BD Biosciences), 10 μg/ml blasticidin S(CN Biosciences), 100 units/ml penicillin, 100 units/ml streptomycin). The functionality of the single cell clones resulting from the selection was tested via their uptake activity for radiolabeled methyl α-D-glucopyranoside. The cell clone with the greatest uptake activity for methyl α-D-glucopyranoside, referred to as CHO-TRex-hSGLT1 hereinafter, was selected for further experiment, and cultivation was continued in the presence of 600 μg/ml of zeocin.
3. Measurement of the Inhibitory Effect of Test Substances on the Uptake of Methyl-D-qlucopyranoside (-MDG)
CHO-TRex-hSGLT1 cells were seeded in a concentration of 50 000 cells per well in Cytostar-T scintillating 96-well plates (Amersham Biosciences) in cell culture medium and cultivated for 24 h. Expression of the recombinant human SGLT1 was induced by adding 1 μg/ml tetracyclin for a further 24 h. For α-MDG uptake experiments, the cells were washed with PBS and then starved (PBS supplemented with 10% fetal calf serum) at 37° C. for one hour. […]
The final concentration of methyl α-D-glucopyranoside in the assay was 50 μM. After an incubation time of 30 min at room temperature, the reaction was stopped by adding 50 μl/well of 10 mM methyl α-D-glucopyranoside in transport assay buffer (4° C.), and the radioactivity uptake by the cells was determined in a MicroBeta Scintillation Microplate Reader (Wallac). The half-maximum inhibitory effect of the test substances (IC50) was determined in the following way: • 1. […] This is the measurement in the absence of substance, measured in sodium-containing transport assay buffer. • 2. […] This is the measurement in the absence of substance, measured in sodium-free transport assay buffer (140 mM choline chloride, 2 mM potassium chloride, 1 mM magnesium chloride, 1 mM calcium chloride, 10 mM HEPES/Tris, pH7.5). • 3. […]

Assay [2] deals with female Sprague-Dawley mature and young adult rats. Description: Animal study of bone quality, daily oral gavage for a minimum of 28 days (overall findings, histopathology). The class given is in vivo, rat. How it is done: The following were evaluated: clinical signs (at least weekly), body weight (weekly), food consumption (weekly), hormones (Days 13 and 27), serum and urinary biochemical markers of bone turnover (Days 13 and 27), serum chemistry (at necropsy), bone densitometry by dual energy X-ray absorptiometry (DXA) and peripheral quantitative computed tomography (pQCT) (Week 2 and 4, as well as ex vivo), macroscopic observations at necropsy, organ weights, histopathology, biomechanical strength testing and femoral length measurements.

For the compound `COc1ccc(Cc2ccccc2OC2OC(CO)C(F)C(O)C2O)cc1` (stereo not drawn) [Example 1 of formula III], the half-inhibitory concentration (IC50) (in general, the concentration needed to halve the response being measured) in assay [1] amounted to 770 nM.

On to `COc1ccc(Cc2c(OC3OC(CO)C(F)C(O)C3O)n[nH]c2C(F)(F)F)cc1` (stereo not drawn) [Example 5 of formula II], for which, in assay [2] (both dose levels (10, 50 mg/kg/day), both rat populations), the “effects on bone mass and bone strength associated parameters” value is recorded as “positive effects”. The “trabecular bone noted histopathologically” value in assay [2] (young only) is given as “increase in trabecular bone”. Moreover, the IC50 in assay [1] was determined as 29 nM.

Turning to `CCc1ccc(Cc2ccccc2OC2OC(CO)C(F)C(O)C2O)cc1` (stereo not drawn) [Example 20 of formula III], the IC50 in assay [1] was 320 nM.

As to `CC(C)c1[nH]nc(OC2OC(CO)C(F)C(O)C2O)c1Cc1ccc(CCCC(=O)NC(CO)(CO)CO)cc1` (stereo not drawn) [Example 21 of formula I], in assay [1], the IC50 worked out at 27 nM.
